# Test results published in patent US11535629B2, “Dioxoloisoquinolinone derivatives and use thereof” (HANMI PHARMACEUTICAL CO., LTD., priority 2020, dated 2022).
# Test system: KARPAS-422 cells
# Test: Cell growth inhibition test (CTG method)
# Assay type: cell-based
# Conditions: Homo sapiens, KARPAS-422, 168 h, KARPAS-422 (EZH2^Y641N mutant), culturing for 7 days; read-out: Cell growth inhibitory activity (GI50, nM) KARPAS-422 (EZH2^Y641N mutant)
# Experimental: The cultured cell strain was prepared at 1.8×10^4 cells/400 μL and placed in a 48-well plate.
row,SMILES,GI50 [nM]
1,"Cc1cc(C)c(CN2CCc3c(Cl)c4c(c(C)c3C2=O)OC(C)(C23CCC(N(C)C)(CC2)CC3)O4)c(=O)[nH]1 (stereo not shown) [Compound 1, 9-chloro-6-((4,6-dimethyl-2-oxo-1,2-dihydropyridin-3-yl)methyl)-2-(4-(dimethylamino)bicyclo[2.2.2]octan-1-yl)-2,4-dimethyl-7,8-dihydro-[1,3]dioxolo[4,5-g]isoquinolin-5(6H)-one]",10 to 100
2,"Cc1cc(C)c(CN2CCc3c(Br)c4c(c(C)c3C2=O)OC(C)(C23CCC(N(C)C)(CC2)CC3)O4)c(=O)[nH]1 (stereo not shown) [Compound 10, 9-bromo-6-((4,6-dimethyl-2-oxo-1,2-dihydropyridin-3-yl)methyl)-2-(4-(dimethylamino)bicyclo[2.2.2]octan-1-yl)-2,4-dimethyl-7,8-dihydro-[1,3]dioxolo[4,5-g]isoquinolin-5(6H)-one]",4.1 to 55
3,"Cc1cc(C)c(CN2CCc3c(c(C)c4c(c3C3CC3)OC(C)(C35CCC(N(C)C)(CC3)CC5)O4)C2=O)c(=O)[nH]1 (stereo not shown) [Compound 13, 9-cyclopropyl-6-((4,6-dimethyl-2-oxo-1,2-dihydropyridin-3-yl)methyl)-2-(4-(dimethylamino)bicyclo[2.2.2]octan-1-yl)-2,4-dimethyl-7,8-dihydro-[1,3]dioxolo[4,5-g]isoquinolin-5(6H)-one]",30

# Results, then the compound that gave them:
row,GI50 [nM],SMILES
1,45,"Cc1cc(C)c(CN2CCc3cc4c(c(C)c3C2=O)OC(C)(C23CCC(N(C)C)(CC2)CC3)O4)c(=O)[nH]1 (stereo not shown) [Compound 14, 6-((4,6-dimethyl-2-oxo-1,2-dihydropyridin-3-yl)methyl)-2-(4-(dimethylamino)bicyclo[2.2.2]octan-1-yl)-2,4-dimethyl-7,8-dihydro-[1,3]dioxolo[4,5-g]isoquinolin-5(6H)-one]"
2,36,"Cc1cc(C)c(CN2CCc3c(c(C)c4c(c3C3CCCC3)OC(C)(C35CCC(N(C)C)(CC3)CC5)O4)C2=O)c(=O)[nH]1 (stereo not shown) [Compound 16, 9-cyclopentyl-6-((4,6-dimethyl-2-oxo-1,2-dihydropyridin-3-yl)methyl)-2-(4-(dimethylamino)bicyclo[2.2.2]octan-1-yl)-2,4-dimethyl-7,8-dihydro-[1,3]dioxolo[4,5-g]isoquinolin-5(6H)-one]"
3,27,"CCc1c2c(c(C)c3c1OC(C)(C14CCC(N(C)C)(CC1)CC4)O3)C(=O)N(Cc1c(C)cc(C)[nH]c1=O)CC2 (stereo not shown) [Compound 18, 6-((4,6-dimethyl-2-oxo-1,2-dihydropyridin-3-yl)methyl)-2-(4-(dimethylamino)bicyclo[2.2.2]octan-1-yl)-9-ethyl-2,4-dimethyl-7,8-dihydro-[1,3]dioxolo[4,5-g]isoquinolin-5(6H)-one]"
4,47,"Cc1cc(C)c(CN2CCc3c(c(C)c4c(c3C(C)C)OC(C)(C35CCC(N(C)C)(CC3)CC5)O4)C2=O)c(=O)[nH]1 (stereo not shown) [Compound 20, 6-((4,6-dimethyl-2-oxo-1,2-dihydropyridin-3-yl)methyl)-2-(4-(dimethylamino)bicyclo[2.2.2]octan-1-yl)-9-isopropyl-2,4-dimethyl-7,8-dihydro-[1,3]dioxolo[4,5-g]isoquinolin-5(6H)-one]"
5,18,"C#Cc1c2c(c(C)c3c1OC(C)(C14CCC(N(C)C)(CC1)CC4)O3)C(=O)N(Cc1c(C)cc(C)[nH]c1=O)CC2 (stereo not shown) [Compound 21, 6-((4,6-dimethyl-2-oxo-1,2-dihydropyridin-3-yl)methyl)-2-(4-(dimethylamino)bicyclo[2.2.2]octan-1-yl)-9-ethynyl-2,4-dimethyl-7,8-dihydro-[1,3]dioxolo[4,5-g]isoquinolin-5(6H)-one]"
6,14,"COc1cc(C)[nH]c(=O)c1CN1CCc2c(C)c3c(c(C)c2C1=O)OC(C)(C12CCC(N(C)C)(CC1)CC2)O3 (stereo not shown) [Compound 25, 2-(4-(dimethylamino)bicyclo[2.2.2]octan-1-yl)-6-((4-methoxy-6-methyl-2-oxo-1,2-dihydropyridin-3-yl)methyl)-2,4,9-trimethyl-7,8-dihydro[1,3]dioxolo[4,5-g]isoquinolin-5(6H)-one]"
7,46,"CCCc1cc(C)[nH]c(=O)c1CN1CCc2c(C)c3c(c(C)c2C1=O)OC(C)(C12CCC(N(C)C)(CC1)CC2)O3 (stereo not shown) [Compound 26, 2-(4-(dimethylamino)bicyclo[2.2.2]octan-1-yl)-2,4,9-trimethyl-6-((6-methyl-2-oxo-4-propyl-1,2-dihydropyridin-3-yl)methyl)-7,8-dihydro[1,3]dioxolo[4,5-g]isoquinolin-5(6H)-one]"

# Same assay, conditions: KARPAS-422 (EZH2^Y641N mutant), culturing for 7 days; read-out: Cell growth inhibitory activity (GI50, nM) KARPAS-422 (EZH2^Y641N mutant)
row,SMILES,GI50 [nM]
1,"Cc1cc(C)c(CN2CCc3c(Cl)c4c(c(C)c3C2=O)OC(C)(C23CCC(N(C)C)(CC2)CC3)O4)c(=O)[nH]1 (single isomer, unassigned) [Compound 3, 9-chloro-6-((4,6-dimethyl-2-oxo-1,2-dihydropyridin-3-yl)methyl)-2-(4-(dimethylamino)bicyclo[2.2.2]octan-1-yl)-2,4-dimethyl-7,8-dihydro-[1,3]dioxolo[4,5-g]isoquinolin-5(6H)-one]",100 to 1000
2,"COc1cc(C)[nH]c(=O)c1CN1CCc2c(Cl)c3c(c(C)c2C1=O)OC(C)(C12CCC(N(C)C)(CC1)CC2)O3 (single isomer, unassigned) [Compound 6, 9-chloro-2-(4-(dimethylamino)bicyclo[2.2.2]octan-1-yl)-6-((4-methoxy-6-methyl-2-oxo-1,2-dihydropyridin-3-yl)methyl)-2,4-dimethyl-7,8-dihydro[1,3]dioxolo[4,5-g]isoquinolin-5(6H)-one]",> 1000
3,"CSc1cc(C)[nH]c(=O)c1CN1CCc2c(Cl)c3c(c(C)c2C1=O)OC(C)(C12CCC(N(C)C)(CC1)CC2)O3 (single isomer, unassigned) [Compound 9, 9-chloro-2-(4-(dimethylamino)bicyclo[2.2.2]octan-1-yl)-2,4-dimethyl-6-((6-methyl-4-(methylthio)-2-oxo-1,2-dihydropyridin-3-yl)methyl)-7,8-dihydro[1,3]dioxolo[4,5-g]isoquinolin-5(6H)-one]",100 to 1000
4,"Cc1cc(C)c(CN2CCc3c(Br)c4c(c(C)c3C2=O)OC(C)(C23CCC(N(C)C)(CC2)CC3)O4)c(=O)[nH]1 (single isomer, unassigned) [Compound 12, 9-bromo-6-((4,6-dimethyl-2-oxo-1,2-dihydropyridin-3-yl)methyl)-2-(4-(dimethylamino)bicyclo[2.2.2]octan-1-yl)-2,4-dimethyl-7,8-dihydro-[1,3]dioxolo[4,5-g]isoquinolin-5(6H)-one]",> 1000

# Results, then the compound that gave them:
row,GI50 [nM],SMILES
1,12 to 19,"Cc1cc(C)c(CN2CCc3c(C)c4c(c(C)c3C2=O)OC(C)(C23CCC(N(C)C)(CC2)CC3)O4)c(=O)[nH]1 (stereo not shown) [Compound 22, 6-((4,6-dimethyl-2-oxo-1,2-dihydropyridin-3-yl)methyl)-2-(4-(dimethylamino)bicyclo[2.2.2]octan-1-yl)-2,4,9-trimethyl-7,8-dihydro-[1,3]dioxolo[4,5-g]isoquinolin-5(6H)-one]"
2,100 to 1000,"Cc1cc(C)c(CN2CCc3c(C)c4c(c(C)c3C2=O)OC(C)(C23CCC(N(C)C)(CC2)CC3)O4)c(=O)[nH]1 (stereo not shown) [Compound 24, 6-((4,6-dimethyl-2-oxo-1,2-dihydropyridin-3-yl)methyl)-2-(4-(dimethylamino)bicyclo[2.2.2]octan-1-yl)-2,4,9-trimethyl-7,8-dihydro-[1,3]dioxolo[4,5-g]isoquinolin-5(6H)-one]"
